Source: the NIST ThermoML archive (doi:10.1021/je030136n)

Legend:
[1] = xn = mol fraction of the nth substance listed; settings: Liquid, Pulse-echo method, x1 = 1
[2] = Liquid, Pulse-echo method

CCCO [propan-1-ol] + CCCCCCC
[1]
Settings | speed of sound [m/s]
293.12 K, 15200 kPa | 1308.5
293.16 K, 121580 kPa | 1699.1
293.17 K, 111450 kPa | 1669.9
293.18 K, 101320 kPa | 1639.5
293.19 K, 100 kPa | 1223
293.2 K, 75990 kPa | 1557.2
293.2 K, 91190 kPa | 1607.6
293.21 K, 45590 kPa | 1444.2
293.21 K, 60790 kPa | 1502.8
293.22 K, 30400 kPa | 1379.9
298.11 K, 15200 kPa | 1292.9
298.12 K, 100 kPa | 1205.9
298.14 K, 45590 kPa | 1430.7
298.14 K, 60790 kPa | 1490
298.14 K, 75990 kPa | 1544.9
298.14 K, 91190 kPa | 1595.8
298.14 K, 101320 kPa | 1628
298.14 K, 111450 kPa | 1658.8
298.14 K, 121580 kPa | 1688.2
298.15 K, 30400 kPa | 1365.6
303.12 K, 100 kPa | 1188.7
303.13 K, 45590 kPa | 1417
303.14 K, 15200 kPa | 1277.3
303.15 K, 75990 kPa | 1532.5
303.17 K, 91190 kPa | 1584
303.17 K, 101320 kPa | 1616.5
303.18 K, 121580 kPa | 1677.4
303.19 K, 111450 kPa | 1647.5
303.2 K, 60790 kPa | 1477
303.24 K, 30400 kPa | 1350.9
308.11 K, 121580 kPa | 1667
308.12 K, 75990 kPa | 1520.4
308.13 K, 30400 kPa | 1336.8
308.13 K, 45590 kPa | 1403.7
308.13 K, 60790 kPa | 1464.5
308.16 K, 111450 kPa | 1636.7
308.19 K, 101320 kPa | 1605.1
308.2 K, 100 kPa | 1171.4
308.2 K, 15200 kPa | 1263.6
308.2 K, 91190 kPa | 1572.4
313.15 K, 91190 kPa | 1561.1
313.15 K, 101320 kPa | 1594.1
313.16 K, 15200 kPa | 1248.7
313.16 K, 30400 kPa | 1322.6
313.16 K, 45590 kPa | 1390.4
313.16 K, 75990 kPa | 1508.5
313.17 K, 100 kPa | 1154.5
313.17 K, 60790 kPa | 1451.8
313.17 K, 121580 kPa | 1656.2
313.22 K, 111450 kPa | 1625.8
318.11 K, 101320 kPa | 1583.3
318.12 K, 60790 kPa | 1439.6
318.12 K, 75990 kPa | 1496.8
318.12 K, 91190 kPa | 1549.9
318.14 K, 45590 kPa | 1377.4
318.16 K, 30400 kPa | 1308.7
318.17 K, 111450 kPa | 1615.3
318.17 K, 121580 kPa | 1646
318.2 K, 100 kPa | 1137.5

CCCCCCC [heptane]
[2]
Settings | speed of sound [m/s]
293.1 K, 111450 kPa | 1674.3
293.15 K, 100 kPa | 1151.7
293.16 K, 121580 kPa | 1707.1
293.18 K, 30400 kPa | 1341.5
293.19 K, 45590 kPa | 1416.6
293.2 K, 15200 kPa | 1256.3
293.2 K, 60790 kPa | 1484.5
293.2 K, 75990 kPa | 1546.5
293.2 K, 91190 kPa | 1603.7
293.2 K, 101320 kPa | 1639.7
298.11 K, 75990 kPa | 1531.6
298.13 K, 111450 kPa | 1660.5
298.14 K, 121580 kPa | 1692.4
298.15 K, 91190 kPa | 1589.4
298.16 K, 100 kPa | 1129.9
298.16 K, 101320 kPa | 1625.7
298.16 K, 111450 kPa | 1660.4
298.18 K, 45590 kPa | 1400.1
298.19 K, 60790 kPa | 1468.7
303.06 K, 100 kPa | 1108.9
303.07 K, 45590 kPa | 1384.4
303.1 K, 101320 kPa | 1612.6
303.1 K, 121580 kPa | 1681.2
303.13 K, 30400 kPa | 1307
303.15 K, 111450 kPa | 1647.6
303.17 K, 15200 kPa | 1218.6
303.17 K, 75990 kPa | 1517.2
303.18 K, 60790 kPa | 1453.7
303.18 K, 91190 kPa | 1575.7
308.07 K, 30400 kPa | 1290.3
308.07 K, 45590 kPa | 1368.7
308.08 K, 100 kPa | 1087.4
308.08 K, 15200 kPa | 1200.4
308.11 K, 91190 kPa | 1562.4
308.12 K, 60790 kPa | 1439
308.12 K, 75990 kPa | 1503.2
308.17 K, 121580 kPa | 1668.6
308.21 K, 111450 kPa | 1634.6
308.24 K, 101320 kPa | 1599.1
313.1 K, 100 kPa | 1066.1
313.1 K, 15200 kPa | 1182
313.1 K, 75990 kPa | 1489.2
313.12 K, 30400 kPa | 1273.3
313.12 K, 45590 kPa | 1353
313.12 K, 60790 kPa | 1424.3
313.13 K, 91190 kPa | 1549
313.13 K, 121580 kPa | 1656.4
313.2 K, 111450 kPa | 1622
313.21 K, 101320 kPa | 1586.2
318.09 K, 75990 kPa | 1475.5
318.15 K, 91190 kPa | 1535.7
318.17 K, 45590 kPa | 1337.4
318.17 K, 60790 kPa | 1409.6
318.17 K, 121580 kPa | 1644.3
318.18 K, 100 kPa | 1044.5
318.18 K, 15200 kPa | 1163.4
318.18 K, 30400 kPa | 1256.5
318.18 K, 101320 kPa | 1573.6
318.18 K, 111450 kPa | 1609.8

CCCO [propan-1-ol]
[2]
Settings | speed of sound [m/s]
293.12 K, 15200 kPa | 1308.5
293.16 K, 121580 kPa | 1699.1
293.17 K, 111450 kPa | 1669.9
293.18 K, 101320 kPa | 1639.5
293.19 K, 100 kPa | 1223
293.2 K, 75990 kPa | 1557.2
293.2 K, 91190 kPa | 1607.6
293.21 K, 45590 kPa | 1444.2
293.21 K, 60790 kPa | 1502.8
293.22 K, 30400 kPa | 1379.9
298.11 K, 15200 kPa | 1292.9
298.12 K, 100 kPa | 1205.9
298.14 K, 45590 kPa | 1430.7
298.14 K, 60790 kPa | 1490
298.14 K, 75990 kPa | 1544.9
298.14 K, 91190 kPa | 1595.8
298.14 K, 101320 kPa | 1628
298.14 K, 111450 kPa | 1658.8
298.14 K, 121580 kPa | 1688.2
298.15 K, 30400 kPa | 1365.6
303.12 K, 100 kPa | 1188.7
303.13 K, 45590 kPa | 1417
303.14 K, 15200 kPa | 1277.3
303.15 K, 75990 kPa | 1532.5
303.17 K, 91190 kPa | 1584
303.17 K, 101320 kPa | 1616.5
303.18 K, 121580 kPa | 1677.4
303.19 K, 111450 kPa | 1647.5
303.2 K, 60790 kPa | 1477
303.24 K, 30400 kPa | 1350.9
308.11 K, 121580 kPa | 1667
308.12 K, 75990 kPa | 1520.4
308.13 K, 30400 kPa | 1336.8
308.13 K, 45590 kPa | 1403.7
308.13 K, 60790 kPa | 1464.5
308.16 K, 111450 kPa | 1636.7
308.19 K, 101320 kPa | 1605.1
308.2 K, 100 kPa | 1171.4
308.2 K, 15200 kPa | 1263.6
308.2 K, 91190 kPa | 1572.4
313.15 K, 91190 kPa | 1561.1
313.15 K, 101320 kPa | 1594.1
313.16 K, 15200 kPa | 1248.7
313.16 K, 30400 kPa | 1322.6
313.16 K, 45590 kPa | 1390.4
313.16 K, 75990 kPa | 1508.5
313.17 K, 100 kPa | 1154.5
313.17 K, 60790 kPa | 1451.8
313.17 K, 121580 kPa | 1656.2
313.22 K, 111450 kPa | 1625.8
318.11 K, 101320 kPa | 1583.3
318.12 K, 60790 kPa | 1439.6
318.12 K, 75990 kPa | 1496.8
318.12 K, 91190 kPa | 1549.9
318.14 K, 45590 kPa | 1377.4
318.16 K, 30400 kPa | 1308.7
318.17 K, 111450 kPa | 1615.3
318.17 K, 121580 kPa | 1646
318.2 K, 100 kPa | 1137.5
